The values below come from patent US20060069038A1, “Irreversible caspase-3 inhibitors as active site probes” (priority 2003, published 2006).

Like-named read-outs stand apart in the source and are kept apart here.

In assay [1] the target is T1, caspase-3 (Rattus norvegicus, UniProt P55213).
T1 construct: endogenous in cells; host or cells: primary rat thymocytes (Sprague-Dawley), spontaneous apoptosis in culture
T1 sequence (P55213 29-175 limits assumed): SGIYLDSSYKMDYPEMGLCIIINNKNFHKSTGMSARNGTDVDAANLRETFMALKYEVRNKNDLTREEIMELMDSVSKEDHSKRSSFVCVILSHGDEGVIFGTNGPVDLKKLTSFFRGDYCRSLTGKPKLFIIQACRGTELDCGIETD
T1 sequence (P55213 176-277 limits assumed): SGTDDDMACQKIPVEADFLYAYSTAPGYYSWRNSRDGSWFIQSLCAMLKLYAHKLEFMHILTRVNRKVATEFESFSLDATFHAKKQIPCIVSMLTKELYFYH
As to the kind of experiment: Caspase active site occupancy by [125I]-M808 labeling in whole rat thymocytes. It counts as cell-based. Here is the method: FIG. 5. Determination of caspase active site occupancy by M867 in cultured rat thymocytes. A-Theoretical calculations for the determination of the percentage of caspase-3 active sites occupied by M867 in whole cells. The total amount of caspase-3 p17 subunit is determined densitometrically by either Western blotting of saturation [^125I]-M808 labeling. Partial labeling of active caspases in whole cells is perforemd (see materials and methods). A graph of the p17 amount against partial [^125I]-M808 labeling signal in the absence of M867 (or other reversible caspase inhibitors) is plotted. The [^125I]-M808 signal expected from the measured p17 amount is estimated form this plot. The actual [^125I]-M808 signal (by partial labeling) in the presence of reversible inhibitor is measured. The ratio of actual [^125I]-M808 signal over expected [^125I]-M808 signal multiplied by 100=the percentage of caspase active sites unoccupied by an inhibitor. The percentage occupancy=100−% free active sites. B-C An actual determination of caspase active site occupancy by M867 in whole rat thymocytes. B-caspase-3 western blot. C-[^125I]-M808 signal from whole rat thymocytes exposed to increasing concentrations of M867. Comparison of M867 caspase inhibition potency (IC50) determined by DNA fragmentation inhibition and [^125I]-M808 labeling is also depicted. […]

For assay [2], the target named is T1, caspase-3. Briefly: Caspase-3 western blot in cultured rat thymocytes. It counts as cell-based. As to conditions: FIG. 5B. Here is the method:
Rat thymocytes were cultured for 24 hours at a density of 10×10^6 cells/ml in CytoSF4 supplemented with 2 mM L-glutamine and penicillin-streptamycin and the indicated concentration of caspase inhibitors.
Denatured protein extracts in 1× Laemli buffer were resolved through a 18% acrylamide gradient SDS-PAGE gel (Invitrogen) at 30 mA in Tris-Glycine buffer. Samples labeled with [^125I]-M808 were migrated until the dye front reached 0.5 cm above the end of the gel, and acrylamide 1 cm above the dye front was cut out to remove all free [^125I]-M808 and reduce background. The gels were fixed for 45 minutes in a 40% Methanol-10% Acetic acid solution and dried for 90 min at 80° C. before exposure on MS Kodak film with MS intensifying screens. For Western blotting, proteins were transferred onto a […] nitrocellulose membrane (Invitrogen) in Tris-Glycine-20% methanol buffer at 40V for 2 hours. Non-specific protein binding was minimized by incubating the membranes for 1 hour in blocking buffer (5% non-fat milk/TBS/0.1% Tween-20). Anti-caspase-3 (W R280 and MF467) were diluted 2000-fold in blocking buffer and incubated for 1 hour at 25° C. […] Densitometry was performed using a BioRad instrument and QuantityOne software. […]

Broadly, the IC50 is the concentration at which inhibition is half-maximal. As to `CCCCCN(C)CC(=O)[C@H](CC(=O)O)NC(=O)[C@H](CC)n1cc(C(C)(C)C)nc(NCc2nonc2C)c1=O` [Example M867, (3S)-3-({(2S)-2-[5-tert-butyl-3-{[(4-methyl-1,2,5-oxadiazol-3-yl)methyl]amino}-2-oxopyrazin-1(2H)-yl]butanoyl}amino)-5-[methyl(pentyl)amino]-4-oxopentanoic acid], the IC50 on caspase-3 [1] (five independent experiments, p=0.03 vs DNA fragmentation IC50, read-out: IC50 determined with M808) was determined as 130 nM; at caspase-3 [1] (whole rat thymocytes, experiment of FIG. 5, read-out: IC50, occupancy of caspase by M867 ([125I]-M808 labeling)), 140 nM. Besides, the “impact on caspase-3 cleavage” value at caspase-3 [2] is “minimal impact on caspase-3 cleavage except at the highest concentration”.
